According to US9232796B2, “Herbicidal compositions comprising 4-amino-3-chloro-5-fluoro-6-(4-chloro-2-fluoro-3-methoxyphenyl) pyridine-2-carboxylic acid or a derivative thereof and acetyl-CoA carboxylase (ACCase) inhibitors” (DOW AGROSCIENCES LLC, priority 2012, dated 2016):

What was measured:
FIMMI = test: Example VI in-water applied ternary mixtures, greenhouse, transplanted paddy rice weeds; type: in vivo, Fimbristylis miliacea (L.) Vahl
Summary of the method: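 Compound A (SC, acid-equivalent basis) alone or with cyhalofop-R-butyl or metamifop plus a third herbicide, injected into paddy water of greenhouse-grown transplanted rice and weeds at 1st–4th leaf stage (~29/26 °C). Visual injury scored 0–100% after ~3 weeks vs untreated; expected mixture effects by Colby's equation.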

SCPJU = test: as above; type: in vivo, Schoenoplectus juncoides (Roxb.) Palla
Experimental: Weed seeds or nutlets of the desired test plant species were planted in puddled soil (mud) prepared by mixing a shredded, non-sterilized mineral soil (50.5 percent silt, 25.5 percent clay, and 24 percent sand, with a pH of about 7.6 and an organic matter content of about 2.9 percent) and water at a 1:1 volumetric ratio. The prepared mud was dispensed in 365 mL aliquots into 16-ounce (oz.) non-perforated plastic pots with a surface area of 86.59 square centimeters (cm^2) leaving a headspace of 3 centimeters (cm) in each pot. Mud was allowed to dry overnight prior to planting or transplanting. Rice seeds were planted in Sun Gro MetroMix® 306 planting mixture, which typically has a pH of 6.0 to 6.8 and an organic matter content of about 30 percent, in plastic plug trays. Seedlings at the second or third leaf stage of growth were transplanted into 860 mL of mud contained in 32-oz. non-perforated plastic pots with a surface area of 86.59 cm^2 4 days prior to herbicide application. The paddy was created by filling the headspace of the pots with 2.5 to 3 cm of water. When required to ensure good germination and healthy plants, a fungicide treatment and/or other chemical or physical treatment was applied. The plants were grown for 4-22 days in a greenhouse with an approximate 14 hr. photoperiod which was maintained at about 29° C. during the day and 26° C. during the night. Nutrients were added as Osmocote® (19:6:12, N:P:K+minor nutrients) at 2 g per 16-oz. pot and 4 g per 32-oz. pot. Water was added on a regular basis to maintain the paddy flood, and supplemental lighting was provided with overhead metal halide 1000-Watt lamps as necessary. The plants were employed for testing when they reached the first through fourth true leaf stage.
Treatments consisted of the benzyl ester of 4-amino-3-chloro-5-fluoro-6-(4-chloro-2-fluoro-3-methoxy-phenyl)pyridine-2-carboxylic acid (Compound A), formulated as an SC (suspension concentrate), an ACCase inhibitor herbicide, and a third herbicidal component, each applied alone and in ternary combination. Forms of compound A were applied on an acid equivalent basis.
The ACCase inhibitor component was applied on an active ingredient basis and included cyhalofop-R-butyl formulated as Clincher® G and metamifop formulated as Metamifop EC. […]
Treatment requirements for each compound or herbicidal component were calculated based upon the rates being tested, the concentration of active ingredient or acid equivalent in the formulation, an application volume of 1 mL per component per pot, and an application area of 86.59 cm^2 per pot.
For formulated compounds, a measured amount was placed in an individual 100 or 200 mL glass vial and was dissolved in a volume of 1.25% (v/v) Agri-Dex® crop oil concentrate to obtain application solutions. […]

CCCCOC(=O)[C@@H](C)Oc1ccc(Oc2ccc(C#N)cc2F)cc1 [Cyhalofop-butyl, butyl(2R)-2-[4-(4-cyano-2-fluorophenoxy)phenoxy]propanoate, reference compound]
Visual Weed Control (%) - 21 DAA FIMMI Obs (FIMMI; 22.5 gai/ha): 33%
Visual Weed Control (%) - 21 DAA FIMMI Obs (FIMMI; 22.5 gai/ha, second set): 0%
Visual Weed Control (%) - 21 DAA FIMMI Obs (FIMMI; 45 gai/ha): 0%
Visual Weed Control (%) - 21 DAA FIMMI Obs (FIMMI; 45 gai/ha, first set): 0%
Visual Weed Control (%) - 21 DAA FIMMI Obs (FIMMI; 45 gai/ha, second set): 0%
Visual Weed Control (%) - 24 DAA FIMMI Obs (FIMMI; 90 gai/ha): 0%
Visual Weed Control (%) - 24 DAA FIMMI Obs (FIMMI; 180 gai/ha): 20%
Visual Weed Control (%) - 24 DAA FIMMI Obs (FIMMI; Table 67, 180 gai/ha, 24 DAA): 20%
Visual Weed Control (%) - 21 DAA SCPJU Obs (SCPJU; 22.5 gai/ha): 0%
Visual Weed Control (%) - 21 DAA SCPJU Obs (SCPJU; 45 gai/ha): 0%

COc1c(Cl)ccc(-c2nc(C(=O)OCc3ccccc3)c(Cl)c(N)c2F)c1F [Compound A Benzyl Ester, benzyl ester of 4-amino-3-chloro-5-fluoro-6-(4-chloro-2-fluoro-3-methoxy-phenyl)pyridine-2-carboxylic acid]
Visual Weed Control (%) - 21 DAA FIMMI Obs (FIMMI; 1.09 gae/ha): 8%
Visual Weed Control (%) - 21 DAA FIMMI Obs (FIMMI; 1.09 gae/ha, first set): 8%
Visual Weed Control (%) - 21 DAA FIMMI Obs (FIMMI; 2.19 gae/ha): 33%
Visual Weed Control (%) - 21 DAA FIMMI Obs (FIMMI; 2.19 gae/ha, first set): 33%
Visual Weed Control (%) - 24 DAA FIMMI Obs (FIMMI; 4 gae/ha): 0%
Visual Weed Control (%) - 21 DAA FIMMI Obs (FIMMI; 4 gae/ha, second set): 62%
Visual Weed Control (%) - 24 DAA FIMMI Obs (FIMMI; 8 gae/ha): 50%
Visual Weed Control (%) - 24 DAA FIMMI Obs (FIMMI; 16 gae/ha): 30%
Visual Weed Control (%) - 24 DAA FIMMI Obs (FIMMI; Table 67, 4 gae/ha, 24 DAA): 0%
Visual Weed Control (%) - 24 DAA FIMMI Obs (FIMMI; Table 67, 8 gae/ha, 24 DAA): 50%
Visual Weed Control (%) - 24 DAA FIMMI Obs (FIMMI; Table 67, 16 gae/ha, 24 DAA): 30%
Visual Weed Control (%) - 21 DAA SCPJU Obs (SCPJU; 2.19 gae/ha): 77%
